Activity calls are given as the source filed them.
Tests used:
[1] = Late stage assay provider results from the probe development effort to identify selective inhibitors of heat shock protein 90 (HSP90): Absorbance-based cell proliferation assay in MCF7 cells.; format: functional
[2] = Late stage assay provider results from the probe development effort to identify selective inhibitors of heat shock protein 90 (HSP90): Absorbance-based cell proliferation assay in SKBR3 cells.; format: functional; conditions: SK-BR-3
[3] = MITF Orthogonal Assay: SK-MEL-5 CTG Assay Measured in Cell-Based System Using Plate Reader - 2084-02_Inhibitor_Dose_DryPowder_Activity_Set7.; format: functional
[4] = MITF: Counter assay: A375 proliferation Measured in Cell-Based System Using Plate Reader - 2084-03_Inhibitor_Dose_DryPowder_Activity_Set8.; format: functional; conditions: A-375
[5] = inhibitors of TRPM1-promoter reporter in SK-MEL-5 – cell-based, luciferase, dry powder, set 8, MITF inhibitor project, dose response (AID 624430); format: functional
[6] = biological target: T1, Replicative DNA helicase DnaB (Mycobacterium tuberculosis, UniProt P9WMR3); experiment: DnaB intein splicing inhibitors, dose response, biochemical, cell-free fluorescence (AID 449749); format: functional
T1 sequence (P9WMR3 whole entry): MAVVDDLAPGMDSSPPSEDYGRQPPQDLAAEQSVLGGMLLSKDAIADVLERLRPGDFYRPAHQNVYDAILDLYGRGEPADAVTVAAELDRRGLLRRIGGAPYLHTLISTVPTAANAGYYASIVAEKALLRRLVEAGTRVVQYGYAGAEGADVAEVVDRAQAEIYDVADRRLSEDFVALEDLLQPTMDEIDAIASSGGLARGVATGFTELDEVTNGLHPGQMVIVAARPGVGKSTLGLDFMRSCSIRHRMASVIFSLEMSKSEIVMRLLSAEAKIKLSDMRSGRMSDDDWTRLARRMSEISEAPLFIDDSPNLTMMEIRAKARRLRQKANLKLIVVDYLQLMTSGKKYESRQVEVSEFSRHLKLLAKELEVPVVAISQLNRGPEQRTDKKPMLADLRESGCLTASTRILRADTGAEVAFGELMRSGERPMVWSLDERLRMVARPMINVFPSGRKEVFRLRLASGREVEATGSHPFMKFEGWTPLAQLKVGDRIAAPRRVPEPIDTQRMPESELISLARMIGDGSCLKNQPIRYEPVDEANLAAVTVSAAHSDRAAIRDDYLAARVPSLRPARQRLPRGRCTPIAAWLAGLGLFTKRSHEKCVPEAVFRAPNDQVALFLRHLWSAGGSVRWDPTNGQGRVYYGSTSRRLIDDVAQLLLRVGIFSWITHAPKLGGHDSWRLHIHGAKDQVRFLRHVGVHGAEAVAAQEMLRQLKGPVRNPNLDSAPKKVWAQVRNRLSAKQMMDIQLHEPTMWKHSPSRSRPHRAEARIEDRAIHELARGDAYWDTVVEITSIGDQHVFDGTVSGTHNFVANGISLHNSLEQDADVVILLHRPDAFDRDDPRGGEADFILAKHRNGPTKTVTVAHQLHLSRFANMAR

[7] = tested on: INS1; experiment: INS-1E survival protection against cytokine death – cell-based, luminescence, retest, dose response (AID 449756); format: functional; conditions: Rattus norvegicus;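 note: cell death triggered by IL-1 beta plus TNF-alpha plus IFN-gamma mixture; protective hits raise ATP signal compared with cytokine alone wells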
[8] = biological target: T2, Protein RecA (Mycobacterium tuberculosis, UniProt P9WHJ3); experiment: Fluorescence Cell-Free Homogeneous Dose Retest to Identify Inhibitors of RecA-Intein Splicing Activity. [Related pubchem assays (depositor defined):AID2097, AID2223, AID489010, AID492950]; format: functional
T2 sequence (P9WHJ3 whole entry): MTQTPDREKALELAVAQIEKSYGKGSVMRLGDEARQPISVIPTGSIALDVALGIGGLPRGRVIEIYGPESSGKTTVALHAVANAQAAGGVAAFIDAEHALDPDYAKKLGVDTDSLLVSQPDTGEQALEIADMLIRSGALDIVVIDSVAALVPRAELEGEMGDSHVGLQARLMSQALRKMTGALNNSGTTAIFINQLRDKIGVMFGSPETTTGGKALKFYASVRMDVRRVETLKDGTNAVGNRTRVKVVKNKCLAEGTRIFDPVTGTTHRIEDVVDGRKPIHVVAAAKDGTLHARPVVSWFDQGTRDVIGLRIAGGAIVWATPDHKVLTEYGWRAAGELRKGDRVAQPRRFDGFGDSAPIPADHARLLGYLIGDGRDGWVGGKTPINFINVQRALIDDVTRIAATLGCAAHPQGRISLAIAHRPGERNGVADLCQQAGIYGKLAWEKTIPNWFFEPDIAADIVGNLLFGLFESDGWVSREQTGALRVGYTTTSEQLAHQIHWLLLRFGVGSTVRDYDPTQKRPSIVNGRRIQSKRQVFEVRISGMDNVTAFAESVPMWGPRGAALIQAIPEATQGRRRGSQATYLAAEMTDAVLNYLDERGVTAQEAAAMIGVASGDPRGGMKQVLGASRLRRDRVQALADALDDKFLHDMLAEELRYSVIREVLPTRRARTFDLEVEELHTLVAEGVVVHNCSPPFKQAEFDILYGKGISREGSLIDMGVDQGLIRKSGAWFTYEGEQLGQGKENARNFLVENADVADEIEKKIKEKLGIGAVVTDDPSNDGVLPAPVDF

[9] = biological target: T3, Apoptotic protease-activating factor 1 (Homo sapiens, UniProt O14727); format: functional
T3 sequence (O14727 whole entry): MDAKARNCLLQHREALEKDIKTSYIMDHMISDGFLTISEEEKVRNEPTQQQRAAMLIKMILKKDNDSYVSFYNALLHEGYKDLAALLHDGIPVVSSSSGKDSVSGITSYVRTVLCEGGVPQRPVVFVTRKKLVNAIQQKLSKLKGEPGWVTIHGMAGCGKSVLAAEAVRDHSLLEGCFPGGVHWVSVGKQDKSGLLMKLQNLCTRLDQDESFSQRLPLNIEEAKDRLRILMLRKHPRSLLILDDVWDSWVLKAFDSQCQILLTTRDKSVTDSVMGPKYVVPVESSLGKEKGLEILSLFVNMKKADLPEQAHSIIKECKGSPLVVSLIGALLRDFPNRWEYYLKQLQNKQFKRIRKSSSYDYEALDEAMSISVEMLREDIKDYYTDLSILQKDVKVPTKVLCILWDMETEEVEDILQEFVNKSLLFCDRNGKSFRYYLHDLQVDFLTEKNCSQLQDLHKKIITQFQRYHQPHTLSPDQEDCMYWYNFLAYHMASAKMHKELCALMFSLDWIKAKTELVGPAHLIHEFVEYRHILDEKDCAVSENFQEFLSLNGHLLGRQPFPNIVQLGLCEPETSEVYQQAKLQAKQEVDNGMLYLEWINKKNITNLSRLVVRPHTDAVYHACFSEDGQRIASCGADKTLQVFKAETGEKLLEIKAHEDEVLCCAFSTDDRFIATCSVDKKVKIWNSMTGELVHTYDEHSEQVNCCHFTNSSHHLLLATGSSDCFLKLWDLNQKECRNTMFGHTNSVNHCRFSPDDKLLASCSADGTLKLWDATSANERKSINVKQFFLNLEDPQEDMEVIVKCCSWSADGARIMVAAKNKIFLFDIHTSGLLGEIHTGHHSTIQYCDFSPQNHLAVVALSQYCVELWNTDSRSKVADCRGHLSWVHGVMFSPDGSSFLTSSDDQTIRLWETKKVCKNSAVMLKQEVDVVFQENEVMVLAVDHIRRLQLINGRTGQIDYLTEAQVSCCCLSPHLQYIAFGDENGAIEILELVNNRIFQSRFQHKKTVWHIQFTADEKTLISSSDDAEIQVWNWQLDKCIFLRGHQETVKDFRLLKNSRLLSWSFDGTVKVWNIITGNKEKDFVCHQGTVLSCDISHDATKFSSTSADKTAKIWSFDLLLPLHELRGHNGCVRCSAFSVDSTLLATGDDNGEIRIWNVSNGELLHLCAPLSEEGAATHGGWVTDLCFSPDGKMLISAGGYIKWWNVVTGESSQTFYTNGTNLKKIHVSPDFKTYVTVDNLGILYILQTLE

[10] = biological target: T4, Heat shock factor protein 1 (Mus musculus, UniProt P38532); experiment: enhancement of HSF1-driven luciferase signal – cell-based, NIH3T3, luminescence, dose retest, confirmation (AID 435004); format: functional;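 note: stress induced by proteasome inhibitor MG132 added 30 min after compound; luciferase reporter driven by HSF1 response element in NIH3T3 cells; actives raise luminescence as potentiators of the MG132 stress response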
T4 sequence (P38532 whole entry): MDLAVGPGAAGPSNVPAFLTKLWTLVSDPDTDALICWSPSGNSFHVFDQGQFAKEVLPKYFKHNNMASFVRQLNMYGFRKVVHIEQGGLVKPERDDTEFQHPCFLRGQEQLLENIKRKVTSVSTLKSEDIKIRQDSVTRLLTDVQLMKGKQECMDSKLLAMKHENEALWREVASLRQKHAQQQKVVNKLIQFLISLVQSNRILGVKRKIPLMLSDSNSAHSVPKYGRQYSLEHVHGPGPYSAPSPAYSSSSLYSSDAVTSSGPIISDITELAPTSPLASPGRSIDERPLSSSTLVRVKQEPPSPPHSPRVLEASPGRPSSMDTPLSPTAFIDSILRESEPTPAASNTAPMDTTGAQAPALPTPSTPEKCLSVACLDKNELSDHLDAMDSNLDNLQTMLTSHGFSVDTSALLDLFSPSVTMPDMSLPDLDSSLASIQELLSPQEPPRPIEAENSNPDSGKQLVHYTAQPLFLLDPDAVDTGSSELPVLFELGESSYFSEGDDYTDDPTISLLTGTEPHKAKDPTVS

[11] = biological target: Tyrosyl-DNA phosphodiesterase 2 (Homo sapiens, UniProt O95551); experiment: potency against TDP2 phosphodiesterase activity – biochemical, epi absorbance, IC50, dose response (AID 743297)
[12] = biological target: T5, Type-1 angiotensin II receptor (Homo sapiens, UniProt P30556); experiment: antagonism of angiotensin II type 1 receptor – cell-based, uHTS hits, selectivity assay for APJ receptor antagonist project, dose response (AID 463214); format: functional;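 note: antagonist potency against angiotensin II stimulated AT1 response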
T5 sequence (P30556 whole entry): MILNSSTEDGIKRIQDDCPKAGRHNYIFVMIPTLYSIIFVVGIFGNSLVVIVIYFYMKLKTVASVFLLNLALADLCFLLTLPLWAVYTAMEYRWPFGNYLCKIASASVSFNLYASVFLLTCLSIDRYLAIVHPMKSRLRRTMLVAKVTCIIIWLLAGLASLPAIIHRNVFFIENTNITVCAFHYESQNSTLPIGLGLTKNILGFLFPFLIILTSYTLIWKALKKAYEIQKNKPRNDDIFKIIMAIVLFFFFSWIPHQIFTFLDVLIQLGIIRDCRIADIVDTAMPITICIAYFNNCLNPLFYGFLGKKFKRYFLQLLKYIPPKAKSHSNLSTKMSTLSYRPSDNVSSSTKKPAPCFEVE

[13] = biological target: Heat shock protein HSP 90-alpha (Homo sapiens, UniProt P07900); format: functional, organism-based
[14] = tested on: BJ; experiment: BJ-TERT fibroblast viability loss – cell-based, RAS-independent, luminescence, dose response (AID 1933); format: functional; conditions: Homo sapiens
[15] = biological target: T6, Beta-galactosidase (Escherichia coli, UniProt Q8VNN2); experiment: PubChem AID 485352; format: functional
[16] = DRD fibroblast viability loss – cell-based, non-viral oncogenic, luminescence, dose response (AID 1934); format: functional; conditions: Homo sapiens
[17] = tested on: Streptococcus sp. 'group A'; experiment: Streptococcus pyogenes SK(-)GAS viability under kanamycin – luminescence, BacTiterGlo, confirmation, counter-screen for streptokinase expression inhibitor project, dose response (AID 1900); format: functional, organism-based
[18] = biological target: T6, Beta-galactosidase; format: functional
[19] = biological target: Nonstructural protein 1 (Influenza A virus, UniProt Q194T2); format: functional, Influenza A virus (A/California/07/2009(H1N1))
[20] = general mammalian cell viability loss – activator set, cherry-pick, cytotoxicity control for miR-122 modulator project, dose response (AID 720690); format: functional, cell-based;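 note: HEK293T human cells scored for general mammalian cytotoxicity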
[21] = activation of miR-122 Renilla sensor silencing – cell-based, Huh7 psiCHECK-miR122, Renilla luciferase, cherry-picked, dose response (AID 651956); format: functional;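 note: huh7 hepatoma cells stably carrying a psiCHECK-2 miR-122 sensor plasmid; renilla luciferase signal reporting endogenous miR-122 activity after 48 h compound exposure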
[22] = biological target: T7, Kappa-type opioid receptor (Homo sapiens, UniProt P41145); format: functional
[23] = tested on: BJ; experiment: cells; format: functional, cell-based; conditions: Homo sapiens
[24] = tested on: Streptococcus; experiment: GAS UMAA2166 growth inhibition – luminescence, BacTiterGlo, counter-screen for streptokinase expression inhibitor project, dose response (AID 1915); format: functional, organism-based;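 note: potency for reduction of bacterial viability or growth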
[25] = biological target: T7, Kappa-type opioid receptor; format: functional; remark: listed apart in the source
[26] = cells; format: functional, cell-based
[27] = tested on: BJ; experiment: BJ-TERT-LT-ST fibroblast viability loss – cell-based, RAS-independent, luminescence, dose response (AID 1935); format: functional; conditions: Homo sapiens;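 note: BJ fibroblasts immortalized with TERT plus LT and ST oncogenes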
[28] = tested on: BJ; experiment: growth inhibition of engineered Ras-driven BJ cells – cell-based, alamar blue fluorescence, cherrypicked samples, dose response (AID 2631); format: functional; conditions: Homo sapiens;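 note: confirmatory dose-response assay in RAS-dependent BJ fibroblasts engineered with TERT, LT and ST, with cytotoxicity read by fluorescence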
[29] = biological target: Photoreceptor-specific nuclear receptor (Homo sapiens, UniProt Q9Y5X4); format: functional, cell-based;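 note: CHO-S cells with Gal4-NCOR and VP16-NR2E3 two-hybrid luciferase reporter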
[30] = general mammalian cell viability loss – inhibitor set, cherry-pick, set 2, cytotoxicity control for miR-122 modulator project, dose response (AID 720697); format: functional, cell-based
[31] = cells; format: functional, cell-based; remark: listed apart in the source

T7 sequence (P41145 whole entry): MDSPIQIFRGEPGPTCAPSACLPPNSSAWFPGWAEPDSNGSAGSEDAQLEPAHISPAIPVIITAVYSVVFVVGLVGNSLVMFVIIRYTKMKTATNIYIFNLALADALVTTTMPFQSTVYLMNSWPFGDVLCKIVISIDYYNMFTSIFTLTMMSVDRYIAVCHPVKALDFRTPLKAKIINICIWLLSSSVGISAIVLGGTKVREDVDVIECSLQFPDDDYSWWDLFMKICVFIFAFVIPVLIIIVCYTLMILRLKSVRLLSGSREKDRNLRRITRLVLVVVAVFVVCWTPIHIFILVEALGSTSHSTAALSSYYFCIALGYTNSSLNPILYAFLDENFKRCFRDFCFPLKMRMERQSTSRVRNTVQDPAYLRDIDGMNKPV
T6 sequence (Q8VNN2 whole entry): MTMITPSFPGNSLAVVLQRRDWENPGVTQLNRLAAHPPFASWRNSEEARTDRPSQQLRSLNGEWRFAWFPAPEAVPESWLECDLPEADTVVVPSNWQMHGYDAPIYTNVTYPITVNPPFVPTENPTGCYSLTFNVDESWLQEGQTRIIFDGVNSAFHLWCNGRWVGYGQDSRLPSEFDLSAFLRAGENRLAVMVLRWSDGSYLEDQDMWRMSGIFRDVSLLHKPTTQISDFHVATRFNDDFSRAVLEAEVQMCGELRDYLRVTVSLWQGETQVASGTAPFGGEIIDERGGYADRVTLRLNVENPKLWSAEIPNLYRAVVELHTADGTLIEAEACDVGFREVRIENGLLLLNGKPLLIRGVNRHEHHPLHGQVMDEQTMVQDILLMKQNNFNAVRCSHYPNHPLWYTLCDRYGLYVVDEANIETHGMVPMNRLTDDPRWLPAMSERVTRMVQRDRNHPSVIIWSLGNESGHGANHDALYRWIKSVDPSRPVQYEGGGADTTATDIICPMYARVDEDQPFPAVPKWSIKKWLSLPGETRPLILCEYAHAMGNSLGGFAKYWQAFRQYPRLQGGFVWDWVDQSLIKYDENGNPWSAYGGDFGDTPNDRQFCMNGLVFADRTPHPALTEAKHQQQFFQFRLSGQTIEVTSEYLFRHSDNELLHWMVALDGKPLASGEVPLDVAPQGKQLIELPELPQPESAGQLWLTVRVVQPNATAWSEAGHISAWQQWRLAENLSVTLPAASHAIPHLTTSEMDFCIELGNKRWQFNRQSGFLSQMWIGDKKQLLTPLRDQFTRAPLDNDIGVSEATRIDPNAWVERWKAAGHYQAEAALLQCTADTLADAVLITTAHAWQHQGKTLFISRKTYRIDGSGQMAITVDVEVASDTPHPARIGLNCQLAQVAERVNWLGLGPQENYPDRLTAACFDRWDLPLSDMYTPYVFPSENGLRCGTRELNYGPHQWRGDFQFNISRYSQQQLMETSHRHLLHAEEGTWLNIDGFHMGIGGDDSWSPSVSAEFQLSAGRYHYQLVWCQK
Chain of Photoreceptor-specific nuclear receptor (Q9Y5X4 whole entry, the tested form may be a part): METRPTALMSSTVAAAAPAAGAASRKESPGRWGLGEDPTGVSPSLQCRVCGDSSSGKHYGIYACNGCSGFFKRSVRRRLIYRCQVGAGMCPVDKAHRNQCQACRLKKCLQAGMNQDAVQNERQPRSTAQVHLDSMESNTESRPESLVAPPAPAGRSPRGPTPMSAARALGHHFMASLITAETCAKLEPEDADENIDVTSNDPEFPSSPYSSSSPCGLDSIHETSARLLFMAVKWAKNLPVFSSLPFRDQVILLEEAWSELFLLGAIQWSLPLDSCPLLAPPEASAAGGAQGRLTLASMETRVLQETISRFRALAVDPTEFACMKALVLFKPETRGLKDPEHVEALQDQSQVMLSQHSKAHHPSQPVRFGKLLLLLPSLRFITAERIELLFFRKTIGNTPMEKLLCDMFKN
Chain of Tyrosyl-DNA phosphodiesterase 2 (O95551 whole entry): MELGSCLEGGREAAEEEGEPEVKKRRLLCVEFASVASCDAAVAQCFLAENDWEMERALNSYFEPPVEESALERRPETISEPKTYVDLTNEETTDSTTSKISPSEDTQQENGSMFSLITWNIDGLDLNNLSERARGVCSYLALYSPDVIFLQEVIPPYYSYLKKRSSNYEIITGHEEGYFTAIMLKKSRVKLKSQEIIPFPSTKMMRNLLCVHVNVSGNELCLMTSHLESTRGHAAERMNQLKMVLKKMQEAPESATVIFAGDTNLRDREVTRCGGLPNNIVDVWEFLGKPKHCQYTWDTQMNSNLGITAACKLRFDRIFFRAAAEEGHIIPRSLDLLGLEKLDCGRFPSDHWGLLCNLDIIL
Chain of Nonstructural protein 1 (Q194T2 whole entry): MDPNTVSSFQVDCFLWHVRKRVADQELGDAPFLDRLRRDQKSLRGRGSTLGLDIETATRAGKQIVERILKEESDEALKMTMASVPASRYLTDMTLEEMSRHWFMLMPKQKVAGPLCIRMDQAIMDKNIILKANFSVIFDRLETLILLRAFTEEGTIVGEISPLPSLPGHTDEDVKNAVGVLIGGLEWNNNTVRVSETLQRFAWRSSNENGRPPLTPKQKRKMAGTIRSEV

## O=C1OC(=O)/C(=C\NCCN2CCOCC2)C=C1Br
[1]
  IC50: 67 µM (inactive)
[2]
  IC50: 61 µM (inactive)

## COc1ccc(NC2=C(N3CCN(C)CC3)C(=O)c3ccccc3C2=O)cc1
[3]
  AC50: 16.4 µM (active)
[4]
  AC50: > 70 µM (inactive)
[5]
  AC50: 24.9 µM (active)

## CC(=O)Nc1ccc(S(=O)(=O)NC2=C(N3CCN(c4ccc(F)cc4)CC3)C(=O)c3ccccc3C2=O)cc1
[6]
  AC50: 4.98 µM (active)
[7]
  AC50: 4.96 µM (active)
[8]
  EC50: 10.4 µM (active)
[9]
  IC50: 17.4 µM (active)
[10]
  EC50: > 260 µM (inactive)
[11]
  IC50: > 128 µM (inactive)

## Cc1cccnc1Nc1nc(-c2ccccn2)cs1
[12]
  IC50: 2.24 µM (active)
[13]
  AC50: 4.65 µM (active)
[14]
  EC50: 1.46 µM (active)
[15]
  EC50: > 40 µM (inactive)
[7]
  AC50: 0.29 µM (active)
[16]
  EC50: 15.3 µM (inconclusive)
[17]
  EC50: 1.1 µM (active)
[18]
  EC50: > 31.5 µM (inactive)
[19]
  IC50: 2.83 µM (active)
[20]
  AC50: 2.3 µM (active)
[21]
  AC50: 43.8 µM (active)
[22]
  IC50: 2.9 µM (active)
[10]
  EC50: 3.33 µM (active)
[23]
  EC50: 2.18 µM (active)
[24]
  EC50: 6.4 µM (active)
[25]
  IC50: > 32 µM
[26]
  EC50: 3.13 µM (active)
[27]
  EC50: 6.23 µM (inconclusive)
[28]
  EC50: 0.661 µM (active)
[29]
  IC50: 3.9 µM (active)
[30]
  AC50: 0.503 µM (active)
[31]
  EC50: 3.45 µM (active)
